This is an account of results in ChEMBL document CHEMBL4304776, “Indicaxanthin, a multi-target natural compound from Opuntia ficus-indica fruit: From its poly-pharmacological effects to biochemical mechanisms and molecular modelling studies” (Eur J Med Chem, 2019).

Data set [1] in a line: Plasma concentration in rat at 2 uM/kg, po after 2.5 hrs. The data set is classed as ADME, organism-based. Particulars: in vivo.
The species named for data set [2] is Homo sapiens. The experiment in a line: Binding affinity to human LDL assessed per mg of protein.
Data set [3] relates to HUVEC. The data set is described as follows: Antiinflammatory activity in HUVEC assessed as reduction in TNF-alpha induced ICAM1 protein expression at 5 uM incubated for 5 hrs followed by TNFalpha-induction and measured after 16 hrs by flow cytometric analysis relative to control. The data set is classed as functional. Particulars: Homo sapiens. (In general: A flow cytometer gives signals particle by particle.)

For data set [4], the system named is B16-F10. The data set is described as follows: Antitumor activity against […] cells xenografted in C57BL/6 mouse assessed as reduction in tumor weight at 3.2 mg/kg, po measured after 14 days post transfection relative to control. The data set is classed as functional. Particulars: 336 h. Background: In xenograft studies the graft and the host belong to different species.

The subject of data set [5] is B16-F10. The data set is described as follows: Antitumor activity against […] cells xenografted in C57BL/6 mouse assessed as reduction in tumor volume at 3.2 mg/kg, po measured after 14 days post transfection relative to control. It is filed as functional. Particulars: 336 h.
Data set [6] relates to B16-F10. The data set is described as follows: Antitumor activity against […] cells xenografted in C57BL/6 mouse assessed as reduction in CXCL1 level at 3.2 mg/kg, po measured after 14 days post transfection relative to control. It is filed as functional. Particulars: 336 h.
Data set [7] in a line: Drug concentration in rat brain at 2 umol/kg, po after 2.5 hrs. It is filed as ADME, organism-based. Particulars: read-out: Ct.
Data set [8] is described as follows: Drug concentration in rat brain cortex at […], po after 1 hr. The settings on record: read-out: Ct. The data set is classed as ADME, organism-based.
Data set [9] is described as follows: Drug concentration in rat brain cerebellum at […], po after 1 hr. The data set is classed as ADME, organism-based. The settings on record: read-out: Ct.
Data set [10] has as its system Caco-2. The data set is described as follows: Antiproliferative activity against human Caco2 cells assessed as reduction in cell viability after 48 hrs by MTT assay. Particulars: Caco-2, 48 h. The data set is classed as functional, cell-based. A general note: Tetrazolium assays rely on reduction of a dye to a coloured formazan, in cell work by metabolically active cells.

On to `O=C(O)C1=C/C(=C/C=[N+]2/CCC[C@H]2C(=O)[O-])C[C@@H](C(=O)O)N1`, for which, in data set [1], the Cp is 0.2 µM. The Bmax in data set [2] worked out at 0.52 nmol. Moreover, the inhibition (usually the drop in the measured response relative to a control, in per cent) at 5 µM in data set [3] was -15%. Besides, the inhibition in vivo – broadly, the drop in the measured response relative to a control, in per cent – at 3.2 mg/kg is 83% in data set [4], 86% in [5] and 42% in [6]. Also, the concentration at 2.5 h in data set [7] was 20 ng/g. Further, the concentration at 1 h in data set [8] was 50 ng/g; in data set [9] it was 90 ng/g. In data set [10], the IC50 (as a rule, the concentration at which inhibition is half-maximal) is 115 µM.
